# Tests used:
# [1] = test system: TtgA3 (TtgR-E2F4); assay: PEACE: SEAP expression after transient co-transfection of pMG10 and pMG19 (PSV40-TtgA3-pA); assay type: cell-based, Pseudomonas putida DOT-T1E; settings: 48 h
# Text: (§1) Three different transactivators are designed, harboring either the VP16 (TtgA1; pMG11, TtgR-VP16) (Triezenberg S. J. et al., loc. cit.), the p65 (TtgA2; pMG18, TtgR-p65) (Urlinger S., et al., 2000, Gene 247(1-2):103-110) or the human E2F4 (TtgA3; pMG19, TtgR-E2F4) (Akagi K., Kanai M., Saya H., Kozu T., Berns A., 2001, Nucleic Acids Res 29(4):e23) transactivation domains. pMG11, pMG18 or pMG19 are co-transfected with pMG10 (PTtgR1-SEAP-pA) into CHO-K1, HEK-293 as well as primary human fibroblasts and keratinocytes, and SEAP expression is profiled after 48 h of cultivation in the presence or absence of 50 μM phloretin. […] All transactivators mediate similar basal expression levels when phloretin is […] in the medium, but due to their cell-type specificity and graded maximum transcription-initiation capacities, the three transactivators offer a selection of defined expression windows.
# [2] = rodents, cited from earlier work
# [3] = test system: macrolide-responsive control system (ET1, E-VP16; PETR3-SAMY-pA); assay: Compatibility test: macrolide-responsive (EOFF) SAMY production in CHO-PEACE8 (pWW35, pBP100); assay type: cell-based; settings: CHO-PEACE8 transiently transfected with macrolide-responsive control system; Phl 50 μM, EM 2 μg/mL; 48 h; 100 = no inducer
# Text: To evaluate the functional compatibility of PEACE with the established tetracycline— [TETOFF; Gossen M., Bujard H., 1992, Proc Natl Acad Sci USA 89(12):5547-5551] and macrolide— [EOFF; Weber W., et al., 2002, Nat Biotechnol 20(9):901-907] responsive expression circuits CHO-PEACE8 is transiently transfected, transgenic for phloretin-responsive SEAP expression, with either the TETOFF-(pSAM200, PSV40-tTA-pA; pBP99, PhCMV*-1-SAMY-pA) or the EOFF-(PWW35, PSV40-ET1-pA; pBP100, PETR3-SAMY-pA) system set to control the Bacillus stearothermophilus-derived secreted α-amylase (SAMY) in response to tetracycline and erythromycin, respectively. SEAP and SAMY expression are scored 48 h after cultivation of the transfected populations in the presence (50 μM; 2 μg/mL) or absence of the inducer molecules (phloretin, tetracycline, erythromycin).
# [4] = test system: microencapsulated CHO-PEACE8 implants; assay: Transdermal phloretin control of SEAP from microencapsulated CHO-PEACE8 implanted subcutaneously in mice; assay type: in vivo, female OF1 mice; settings: vaseline-based skin lotion 200 μL, 0-42 mg phloretin, every day; 72 h after implantation
# Experimental: (A) Microencapsulated CHO-PEACE8 are implanted subcutaneously into female OF1 mice (2×10^6 cells/mouse). 200 μL of a cream containing different amounts of phloretin (0, 5.25, 10.5, 21 and 42 mg) is applied to a shaved skin area near the implant site. SEAP serum levels are quantified 72 h post implantation.
# CHO-PEACE8 is microencapsulated in coherent alginate-PLL-alginate capsules and implanted subcutaneously into mice. The back of treated mice is partially shaved and vaseline-based skin lotions (200 μL) containing different amounts of phloretin (0-42 mg) are put on every day. […]
# (§2) CHO-PEACE8 and CHO-SEAP18 (Fluri D. A., Kemmer C., Daoud-El Baba M., Fussenegger M., 2008, J Control Release 131(3):211-219) are encapsulated in alginate-poly-(L-lysine)-alginate beads (400 μm; 200 cells/capsule) using an Inotech Encapsulator Research IE-50R (Recipharm, Basel, Switzerland) according to the manufacturer's instructions and the following parameters: 0.2 mm nozzle, 20 mL syringe at a flow rate of 405 units, nozzle vibration frequency of 1024 Hz and 900 V for bead dispersion. […] Thereafter, the mice are sacrificed, blood samples collected and SEAP levels are quantified in the serum which is isolated using microtainer SST tube according to the manufacturer's instructions (Beckton Dickinson, Plymouth, UK). […]
# [5] = test system: TtgA2 (TtgR-p65); assay: PEACE: SEAP expression after transient co-transfection of pMG10 and pMG18 (PSV40-TtgA2-pA); assay type: cell-based, Pseudomonas putida DOT-T1E; settings: 48 h
# Text: as §1
# [6] = test system: CHO-K1 cells transgenic for constitutive SEAP expression; assay: Control mice receiving CHO-K1 cells transgenic for constitutive SEAP expression, phloretin skin lotion; assay type: in vivo, female OF1 mice; settings: constitutive SEAP implant; skin lotion with 42 mg phloretin (0 mg: 6.2±0.43 U/L)
# Experimental: CHO-PEACE8 is microencapsulated in coherent alginate-PLL-alginate capsules and implanted subcutaneously into mice. The back of treated mice is partially shaved and vaseline-based skin lotions (200 μL) containing different amounts of phloretin (0-42 mg) are put on every day. […] Control mice receiving CHO-K1 cells transgenic for constitutive SEAP expression are insensitive to any treatment with phloretin-containing skin lotion (0 mg phloretin: 6.2±0.43 U/L; 42 mg phloretin: 6.02±0.58 U/L).
# as §2
smiles,measurement,setting,value
"O=C(CCc1ccc(O)cc1)c1c(O)cc(O)cc1O [phloretin, 3-[4-hydroxyphenyl]-1-[2,4,6-trihydroxyphenyl]-1-propanone]",SEAP Production,"[1]; CHO-K1, phloretin 50 μM",0.26 ± 0.08 U/L
same,SEAP Production,"[1]; HEK-293, phloretin 50 μM",0.2 ± 0.016 U/L
same,SEAP Production,"[1]; HaCaT, phloretin 50 μM",0.5 ± 0.05 U/L
same,half-life in vivo,[2],rather short half-life in vivo
same,systemic distribution after dermal administration,[2]; dermal administration,systemically spread
same,Relative SAMY Production (%),[3],100.6 ± 7.0%
same,SEAP serum levels in treated mice,[4],phloretin-dependent dose-response characteristics
same,SEAP Production,"[5]; CHO-K1, phloretin 50 μM",0.8 ± 0.05 U/L
same,SEAP Production,"[5]; HEK-293, phloretin 50 μM",1.9 ± 0.1 U/L
same,SEAP Production,"[5]; HaCaT, phloretin 50 μM",0.5 ± 0.05 U/L
same,SEAP Production,"[5]; human primary fibroblasts, phloretin 50 μM",0.2 ± 0.02 U/L
same,SEAP Production,"[5]; human primary keratinocytes, phloretin 50 μM",0.3 ± 0.02 U/L
same,SEAP level in control mice,[6],6.02±0.58 U/L

# Reference: patent US8653046B2, “Controlling transgene expression across the skin” (ETH Zurich, priority 2009, dated 2014)
